Laboratory results as given in patent publication US20260234159A1, “SMALL MOLECULE TREATMENT OF FATTY LIVER DISEASE AND HCC” (SCANDIEDGE THERAPEUTICS AB, priority 2023, published 2026).

Experiments:
HepG2 cells = assay: Wound healing assay; format: cell-based; details: Homo sapiens, HepG2, 96 h, day 4, untreated 100% wound closure, read-out: wound healing delayed by
Outline: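 HepG2 monolayers grown to 95-100% confluence were scratched with a pipette tip and treated with compounds at 1 μM. Wounds were imaged from day 0 until closure in the control group, and wound area was measured from the images.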

[1] = In vivo toxicological study in rats: plasma chemistry; design: species or system rats of the Wistar strain; details: plasma
Procedure: Forty-two male and forty-two female rats of the Wistar strain were allocated to the study. Three groups of three males and three females were given doses of 30, 100 and 300 mg/kg of target compounds (Table 8). The vehicle was 1.5 w/w % HPMC, 1.5 w/w % PS80 in 10 mM PBS, pH 7 and dose volume were 5 mL/kg. The animals were acclimatised at least 14 day prior to the study and exposed to a 12 hours light, 12 hours dark light cycle. The formulations were administered via oral gavage. Administration occurred once daily in the morning for seven consecutive days. Blood for scheduled haematology and plasma chemistry were taken at necropsy. For plasma chemistry, 0.6 ml blood (lithium heparin) per animal and for haematology, 0.5 ml blood (K2EDTA) per animal. The blood and plasma were analysed using Exigo analyzer and Vetscan equipment. Blood samples were kept in room temperature […] after collection and mixing. The blood samples were analysed as whole blood within 60 min of collection. The VetScan analyser was calibrated with calibration samples of known plasma levels of each parameter before start of analysis, occasionally during the analysis period of study samples and after completed analyses (Table 10).

[2] = Sex/Group F/8, 30-300 mg/kg of SET159
[3] = Sex/Group F/9, 30-300 mg/kg of SET159
[4] = Sex/Group F/10, 30-300 mg/kg of SET159
[5] = Sex/Group M/8, 30-300 mg/kg of SET159
[6] = Sex/Group M/9, 30-300 mg/kg of SET159
[7] = Sex/Group M/10, 30-300 mg/kg of SET159
[8] = Sex/Group F/11, 30-300 mg/kg of SET171
[9] = Sex/Group F/12, 30-300 mg/kg of SET171
[10] = Sex/Group F/13, 30-300 mg/kg of SET171
[11] = Sex/Group M/11, 30-300 mg/kg of SET171
[12] = Sex/Group M/12, 30-300 mg/kg of SET171
[13] = Sex/Group M/13, 30-300 mg/kg of SET171

N#Cc1c(NC(=O)c2cccc3ccccc23)sc2c1CCN(C(=O)Nc1ccccc1OC(F)(F)F)C2 [PKL-A159]
inhibition at 1 µM (HepG2 cells): 35.5% | ALB [1, 2]: 56 g/L | ALP [1, 2]: 179 U/L | ALT [1, 2]: 22 U/L | AMY [1, 2]: 541 U/L | BUN [1, 2]: 6.2 mmol/L | CA [1, 2]: 2.76 mmol/L | CRE [1, 2]: 39 µmol/L | GLOB [1, 2]: 9 g/L | GLU [1, 2]: 7.8 mmol/L | K+ [1, 2]: 4.9 mmol/L | NA+ [1, 2]: 139 mmol/L | PHOS [1, 2]: 2.59 mmol/L | TBIL [1, 2]: 4.0 µmol/L | TP [1, 2]: 65 g/L | ALB [1, 3]: 57 g/L | ALP [1, 3]: 135 U/L | ALT [1, 3]: 21 U/L | AMY [1, 3]: 542 U/L | BUN [1, 3]: 5.1 mmol/L | CA [1, 3]: 2.88 mmol/L | CRE [1, 3]: 46 µmol/L | GLOB [1, 3]: 8 g/L | GLU [1, 3]: 7.0 mmol/L | K+ [1, 3]: 4.4 mmol/L | NA+ [1, 3]: 139 mmol/L | PHOS [1, 3]: 2.65 mmol/L | TBIL [1, 3]: 4.3 µmol/L | TP [1, 3]: 65 g/L | ALB [1, 4]: 53 g/L | ALP [1, 4]: 175 U/L | ALT [1, 4]: 23 U/L | AMY [1, 4]: 481 U/L | BUN [1, 4]: 4.8 mmol/L | CA [1, 4]: 2.89 mmol/L | CRE [1, 4]: 40 µmol/L | GLOB [1, 4]: 9 g/L | GLU [1, 4]: 7.8 mmol/L | K+ [1, 4]: 4.7 mmol/L | NA+ [1, 4]: 139 mmol/L | PHOS [1, 4]: 2.80 mmol/L | TBIL [1, 4]: 4.0 µmol/L | TP [1, 4]: 62 g/L | ALB [1, 5]: 49 g/L | ALP [1, 5]: 274 U/L | ALT [1, 5]: 25 U/L | AMY [1, 5]: 719 U/L | BUN [1, 5]: 5.9 mmol/L | CA [1, 5]: 2.94 mmol/L | CRE [1, 5]: 29 µmol/L | GLOB [1, 5]: 11 g/L | GLU [1, 5]: 8.0 mmol/L | K+ [1, 5]: 5.0 mmol/L | NA+ [1, 5]: 141 mmol/L | PHOS [1, 5]: 2.44 mmol/L | TBIL [1, 5]: 4.0 µmol/L | TP [1, 5]: 60 g/L | ALB [1, 6]: 47 g/L | ALP [1, 6]: 324 U/L | ALT [1, 6]: 30 U/L | AMY [1, 6]: 823 U/L | BUN [1, 6]: 6.8 mmol/L | CA [1, 6]: 2.99 mmol/L | CRE [1, 6]: 36 µmol/L | GLOB [1, 6]: 16 g/L | GLU [1, 6]: 8.8 mmol/L | K+ [1, 6]: 5.0 mmol/L | NA+ [1, 6]: 141 mmol/L | PHOS [1, 6]: 2.43 mmol/L | TBIL [1, 6]: 4.3 µmol/L | TP [1, 6]: 63 g/L | ALB [1, 7]: 50 g/L | ALP [1, 7]: 284 U/L | ALT [1, 7]: 24 U/L | AMY [1, 7]: 806 U/L | BUN [1, 7]: 6.1 mmol/L | CA [1, 7]: 3.02 mmol/L | CRE [1, 7]: 47 µmol/L | GLOB [1, 7]: 13 g/L | GLU [1, 7]: 7.9 mmol/L | K+ [1, 7]: 4.8 mmol/L | NA+ [1, 7]: 142 mmol/L | PHOS [1, 7]: 2.42 mmol/L | TBIL [1, 7]: 4.3 µmol/L | TP [1, 7]: 62 g/L

N#Cc1c(NC(=O)c2cccc3ccccc23)sc2c1CCN(CC(=O)Nc1cccc(Br)c1)C2 [PKL-B171]
inhibition at 1 µM (HepG2 cells): 36.4% | ALB [1, 8]: 61 g/L | ALP [1, 8]: 114 U/L | ALT [1, 8]: 21 U/L | AMY [1, 8]: 527 U/L | BUN [1, 8]: 6.0 mmol/L | CA [1, 8]: 2.90 mmol/L | CRE [1, 8]: 45 µmol/L | GLOB [1, 8]: 8 g/L | GLU [1, 8]: 7.8 mmol/L | K+ [1, 8]: 4.4 mmol/L | NA+ [1, 8]: 138 mmol/L | PHOS [1, 8]: 2.33 mmol/L | TBIL [1, 8]: 5.3 µmol/L | TP [1, 8]: 70 g/L | ALB [1, 9]: 57 g/L | ALP [1, 9]: 126 U/L | ALT [1, 9]: 21 U/L | AMY [1, 9]: 570 U/L | BUN [1, 9]: 6.5 mmol/L | CA [1, 9]: 2.92 mmol/L | CRE [1, 9]: 38 µmol/L | GLOB [1, 9]: 9 g/L | GLU [1, 9]: 7.7 mmol/L | K+ [1, 9]: 4.5 mmol/L | NA+ [1, 9]: 137 mmol/L | PHOS [1, 9]: 2.42 mmol/L | TBIL [1, 9]: 5.0 µmol/L | TP [1, 9]: 66 g/L | ALB [1, 10]: 56 g/L | ALP [1, 10]: 145 U/L | ALT [1, 10]: 21 U/L | AMY [1, 10]: 550 U/L | BUN [1, 10]: 6.3 mmol/L | CA [1, 10]: 2.89 mmol/L | CRE [1, 10]: 39 µmol/L | GLOB [1, 10]: 11 g/L | GLU [1, 10]: 7.9 mmol/L | K+ [1, 10]: 4.5 mmol/L | NA+ [1, 10]: 139 mmol/L | PHOS [1, 10]: 2.64 mmol/L | TBIL [1, 10]: 4.0 µmol/L | TP [1, 10]: 67 g/L | ALB [1, 11]: 51 g/L | ALP [1, 11]: 260 U/L | ALT [1, 11]: 26 U/L | AMY [1, 11]: 810 U/L | BUN [1, 11]: 5.3 mmol/L | CA [1, 11]: 2.97 mmol/L | CRE [1, 11]: 47 µmol/L | GLOB [1, 11]: 12 g/L | GLU [1, 11]: 7.8 mmol/L | K+ [1, 11]: 4.3 mmol/L | NA+ [1, 11]: 140 mmol/L | PHOS [1, 11]: 2.83 mmol/L | TBIL [1, 11]: 4.3 µmol/L | TP [1, 11]: 62 g/L | ALB [1, 12]: 52 g/L | ALP [1, 12]: 248 U/L | ALT [1, 12]: 35 U/L | AMY [1, 12]: 846 U/L | BUN [1, 12]: 6.2 mmol/L | CA [1, 12]: 3.04 mmol/L | CRE [1, 12]: 35 µmol/L | GLOB [1, 12]: 12 g/L | GLU [1, 12]: 7.7 mmol/L | K+ [1, 12]: 4.6 mmol/L | NA+ [1, 12]: 140 mmol/L | PHOS [1, 12]: 3.04 mmol/L | TBIL [1, 12]: 4.3 µmol/L | TP [1, 12]: 64 g/L | ALB [1, 13]: 50 g/L | ALP [1, 13]: 263 U/L | ALT [1, 13]: 25 U/L | AMY [1, 13]: 808 U/L | BUN [1, 13]: 6.4 mmol/L | CA [1, 13]: 2.96 mmol/L | CRE [1, 13]: 29 µmol/L | GLOB [1, 13]: 13 g/L | GLU [1, 13]: 8.4 mmol/L | K+ [1, 13]: 4.4 mmol/L | NA+ [1, 13]: 141 mmol/L | PHOS [1, 13]: 2.94 mmol/L | TBIL [1, 13]: 5.0 µmol/L | TP [1, 13]: 63 g/L
